Drawing on US9273057B2 (Bristol-Myers Squibb Company, priority 2012, dated 2016), this text covers IC50 for 27 compounds.

One test deals with CK2A1 (CK2α/β) (Homo sapiens, UniProt P68400). The experiment in a line: CK2 kinase assay, CK2A1 (CK2α/β). In kind it is biochemical. Particulars: CK2A1 (CK2α/β) (IC50, nM), Table A.
Sequence of CK2A1 (CK2α/β) (P68400 whole entry, species assumed): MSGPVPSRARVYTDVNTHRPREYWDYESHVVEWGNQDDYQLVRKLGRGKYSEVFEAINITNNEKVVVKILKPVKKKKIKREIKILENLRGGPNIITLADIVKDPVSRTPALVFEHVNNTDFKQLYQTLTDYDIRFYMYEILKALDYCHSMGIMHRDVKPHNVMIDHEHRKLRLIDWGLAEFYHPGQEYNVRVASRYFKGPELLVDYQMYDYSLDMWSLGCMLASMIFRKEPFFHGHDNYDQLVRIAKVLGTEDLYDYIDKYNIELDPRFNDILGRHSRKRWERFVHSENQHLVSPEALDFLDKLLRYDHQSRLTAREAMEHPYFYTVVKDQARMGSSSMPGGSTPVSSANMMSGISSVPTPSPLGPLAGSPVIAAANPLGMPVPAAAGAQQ
Sequence of CK2A1 (CK2α/β) (P67870 whole entry partner, species assumed): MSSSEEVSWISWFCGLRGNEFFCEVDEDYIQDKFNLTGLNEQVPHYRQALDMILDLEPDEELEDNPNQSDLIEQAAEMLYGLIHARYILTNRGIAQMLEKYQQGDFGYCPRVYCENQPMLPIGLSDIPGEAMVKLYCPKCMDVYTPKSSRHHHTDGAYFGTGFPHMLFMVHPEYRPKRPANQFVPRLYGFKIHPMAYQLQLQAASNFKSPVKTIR
For the compound `CCNc1nc(Nc2cc(C#N)cc(N3CC[C@@H](NC(=O)OC)[C@H](OC(=O)Cc4ccc(OP(=O)(O)O)cc4)C3)c2Cl)nn2c(C#N)cnc12` [Example 344, (3R,4R)-1-(2-chloro-5-cyano-3-((7-cyano-4-(ethylamino)imidazo[2,1-f][1,2,4]triazin-2-yl)amino)phenyl)-4-((methoxycarbonyl)amino)piperidin-3-yl 2-(4-(phosphonooxy)phenyl)acetate], the IC50 amounted to 3 nM.

The same test, now with this note: Table A; read-out: CK2A1 (CK2α/β) (IC50).
For `CCNc1nc(Nc2cc(C#N)cc(N3CC[C@@H](NC(=O)OC)[C@H](OC(=O)CCCOP(=O)(O)O)C3)c2Cl)nn2c(C#N)cnc12` [Example 343, (3R,4R)-1-(2-chloro-5-cyano-3-((7-cyano-4-(ethylamino)imidazo[2,1-f][1,2,4]triazin-2-yl)amino)phenyl)-4-((methoxycarbonyl)amino)piperidin-3-yl 4-(phosphonooxy)butanoate], the IC50 came out at 3 nM.

`CCNc1nc(Nc2cc(C#N)cc(N3CC[C@@H](NC(=O)OC)[C@H](OCOP(=O)(O)O)C3)c2Cl)nn2c(C#N)cnc12` [Example 345, sodium (((3R,4R)-1-(2-chloro-5-cyano-3-((7-cyano-4-(ethylamino)imidazo[2,1-f][1,2,4]triazin-2-yl)amino)phenyl)-4-((methoxycarbonyl)amino)piperidin-3-yl)oxy)methyl phosphate]: the IC50 was determined as 0.8 nM.

For `CCNc1nc(Nc2cc(C#N)cc(N3CC[C@@H](NC(=O)OC)[C@H](OC(=O)[C@@H](N)C(C)C)C3)c2Cl)nn2c(C#N)cnc12` [Example 346, (S)-(3R,4R)-1-(2-chloro-5-cyano-3-((7-cyano-4-(ethylamino)imidazo[2,1-f][1,2,4]triazin-2-yl)amino)phenyl)-4-((methoxycarbonyl)amino)piperidin-3-yl 2-amino-3-methylbutanoate], the IC50 worked out at 2.03 nM.

Take `CCNc1nc(Nc2cc(C#N)cc(C3CCN(C4COC4)CC3)c2Cl)nn2c(C#N)cnc12` [Example 349, 2-((2-chloro-5-cyano-3-(1-(oxetan-3-yl)piperidin-4-yl)phenyl)amino)-4-(ethylamino)imidazo[2,1-f][1,2,4]triazine-7-carbonitrile]: the IC50 is 2.75 nM.

On to `[2H]C1(N2CCC(c3cc(C#N)cc(Nc4nc(NCC)c5ncc(C#N)n5n4)c3Cl)CC2)COC1` [Example 350, 2-((2-chloro-5-cyano-3-(1-(3-~2~H)-3-oxetanyl-4-piperidinyl)phenyl)amino)-4-(ethylamino)imidazo[2,1-f][1,2,4]triazine-7-carbonitrile], for which the IC50 was determined as 1.74 nM.

Turning to `CCNc1nc(Nc2cc(C#N)cc(C3CCN(C)CC3)c2Cl)nn2c(C#N)cnc12` [Example 351, 2-((2-chloro-5-cyano-3-(1-methyl-4-piperidinyl)phenyl)amino)-4-(ethylamino)imidazo[2,1-f][1,2,4]triazine-7-carbonitrile], the IC50 was 0.88 nM.

`CCNc1nc(Nc2cc(C#N)cc(C3CCN(CCOC)CC3)c2Cl)nn2c(C#N)cnc12` [Example 352, 2-((2-chloro-5-cyano-3-(1-(2-methoxyethyl)-4-piperidinyl)phenyl)amino)-4-(ethylamino)imidazo[2,1-f] [1,2,4]triazine-7-carbonitrile]: the IC50 amounted to 2.73 nM.

As for `CCNc1nc(Nc2cc(C#N)cc(C3CCN(CC(C)(C)O)CC3)c2Cl)nn2c(C#N)cnc12` [Example 353, 2-((2-chloro-5-cyano-3-(1-(2-hydroxy-2-methylpropyl)-4-piperidinyl)phenyl)amino)-4-(ethylamino)imidazo[2,1-f][1,2,4]triazine-7-carbonitrile], the IC50 came out at 0.87 nM.

Regarding `CCNc1nc(Nc2cc(C#N)cc(C3CCN(C(C)=O)CC3)c2Cl)nn2c(C#N)cnc12` [Example 354, 2-((3-(1-acetyl-4-piperidinyl)-2-chloro-5-cyanophenyl)amino)-4-(ethylamino)imidazo[2,1-f] [1,2,4]triazine-7-carbonitrile], the IC50 is 0.52 nM.

As for `CCNc1nc(Nc2cc(C#N)cc(C3CCN(C4CN(S(C)(=O)=O)C4)CC3)c2Cl)nn2c(C#N)cnc12` [Example 355, 2-((2-chloro-5-cyano-3-(1-(1-(methylsulfonyl)-3-azetidinyl)-4-piperidinyl)phenyl)amino)-4-(ethylamino)imidazo[2,1-f][1,2,4]triazine-7-carbonitrile], the IC50 came to 5.23 nM.

As for `CCNc1nc(Nc2cc(C#N)cc(C3CCN(C4CN(C(C)=O)C4)CC3)c2Cl)nn2c(C#N)cnc12` [Example 356, 2-((3-(1-(1-acetyl-3-azetidinyl)-4-piperidinyl)-2-chloro-5-cyanophenyl)amino)-4-(ethylamino)imidazo [2,1-f][1,2,4]triazine-7-carbonitrile], the IC50 was 0.72 nM.

With `CN1CCC(N2CC(c3cc(C#N)cc(Nc4nc(NC5CC5)c5ncc(C#N)n5n4)c3Cl)C2)CC1` [Example 357, 2-((2-chloro-5-cyano-3-(1-(1-methylpiperidin-4-yl)azetidin-3-yl)phenyl)amino)-4-(cyclopropylamino)imidazo[2,1-f][1,2,4]triazine-7-carbonitrile], the IC50 worked out at 1.68 nM.

Regarding `N#Cc1cc(Nc2nc(NC3CC3)c3ncc(C#N)n3n2)c(Cl)c(C2CN(C3COC3)C2)c1` [Example 358, 2-((2-chloro-5-cyano-3-(1-(oxetan-3-yl)azetidin-3-yl)phenyl)amino)-4-(cyclopropylamino)imidazo[2,1-f][1,2,4]triazine-7-carbonitrile], the IC50 came out at 0.87 nM.

Regarding `CCNc1nc(Nc2cc(C#N)cc(C3CN(C4COC4)C3)c2Cl)nn2c(C#N)cnc12` [Example 359, 2-((2-chloro-5-cyano-3-(1-(oxetan-3-yl)azetidin-3-yl)phenyl)amino)-4-(ethylamino)imidazo[2,1-f][1,2,4]triazine-7-carbonitrile], the IC50 was determined as 1.58 nM.

As for `CCNc1nc(Nc2cc(C#N)cc(N3CC(N4CCN(C)CC4)C3)c2Cl)nn2c(C#N)cnc12` [Example 360, 2-((2-chloro-5-cyano-3-(3-(4-methylpiperazin-1-yl)azetidin-1-yl)phenyl)amino)-4-(ethylamino)imidazo[2,1-f][1,2,4]triazine-7-carbonitrile], the IC50 was 0.73 nM.

`CCNc1nc(Nc2cc(C#N)cc(N3CCC(NC4COC4)CC3)c2Cl)nn2c(C#N)cnc12` [Example 363, 2-((2-chloro-5-cyano-3-(4-(oxetan-3-ylamino)piperidin-1-yl)phenyl)amino)-4-(ethylamino)imidazo[2,1-f][1,2,4]triazine-7-carbonitrile]: the IC50 turned out to be 0.78 nM.

For the compound `CCNc1nc(Nc2cc(C#N)cc(N3CCC(N(C)C4COC4)CC3)c2Cl)nn2c(C#N)cnc12` [Example 365, 2-((2-chloro-5-cyano-3-(4-(methyl(oxetan-3-yl)amino)piperidin-1-yl)phenyl)amino)-4-(ethylamino)imidazo[2,1-f][1,2,4]triazine-7-carbonitrile], the IC50 was 3.28 nM.

Turning to `CCNc1nc(Nc2cc(C#N)cc(N3CCC(N(C(=O)OC)C4COC4)CC3)c2Cl)nn2c(C#N)cnc12` [Example 366, methyl (1-(2-chloro-5-cyano-3-((7-cyano-4-(ethylamino)imidazo[2,1-f][1,2,4]triazin-2-yl)amino)phenyl)piperidin-4-yl)(oxetan-3-yl)carbamate], the IC50 was determined as 0.78 nM.

With `CCNc1nc(Nc2cc(C#N)cc(C3CNC3)c2Cl)nn2c(C#N)cnc12` [Example 367, 2-((3-(azetidin-3-yl)-2-chloro-5-cyanophenyl)amino)-4-(ethylamino)imidazo[2,1-f][1,2,4]triazine-7-carbonitrile], the IC50 was found to be 1.17 nM.

`CCNc1nc(Nc2cc(C#N)cc(C3CN(C[C@H](C)O)C3)c2Cl)nn2c(C#N)cnc12` [Example 368, (S)-2-((2-chloro-5-cyano-3-(1-(2-hydroxypropyl)azetidin-3-yl)phenyl)amino)-4-(ethylamino)imidazo[2,1-f][1,2,4]triazine-7-carbonitrile]: the IC50 stood at 3.62 nM.

For the compound `CCNc1nc(Nc2cc(C#N)cc(C3CN(C(=O)CC#N)C3)c2Cl)nn2c(C#N)cnc12` [Example 369, 2-((2-chloro-5-cyano-3-(1-(2-cyanoacetyl)azetidin-3-yl)phenyl)amino)-4-(ethylamino)imidazo[2,1-f][1,2,4]triazine-7-carbonitrile], the IC50 came to 1.58 nM.

On to `CCNc1nc(Nc2cc(C#N)cc(N3CC[C@H]4NC(=O)O[C@@H]4C3)c2Cl)nn2c(C#N)cnc12` [Example 375, 2-((2-chloro-5-cyano-3-((3aR,7aR)-2-oxohexahydrooxazolo[5,4-c]pyridin-5(2H)-yl)phenyl)amino)-4-(ethylamino)imidazo[2,1-f][1,2,4]triazine-7-carbonitrile], for which the IC50 came to 0.43 nM.

Turning to `CCNc1nc(Nc2cc(C#N)cc(N3CC[C@@H](NC(=O)OCCOCCOCCOCCOCCOCCOC)[C@H](O)C3)c2Cl)nn2c(C#N)cnc12` [Example 376, 2,5,8,11,14,17-hexaoxanonadecan-19-yl((3R,4R)-1-(2-chloro-5-cyano-3-((7-cyano-4-(ethylamino)imidazo[2,1-f][1,2,4]triazin-2-yl)amino)phenyl)-3-hydroxypiperidin-4-yl)carbamate], the IC50 is 0.83 nM.

Take `CCNc1nc(Nc2cc(C#N)cc(N3CC[C@@H](NC[C@H](C)O)[C@H](O)C3)c2Cl)nn2c(C#N)cnc12` [Example 377, 2-((2-chloro-5-cyano-3-((3R,4R)-3-hydroxy-4-(((S)-2-hydroxypropyl)amino)piperidin-1-yl)phenyl)amino)-4-(ethylamino)imidazo[2,1-f][1,2,4]triazine-7-carbonitrile]: the IC50 turned out to be 0.61 nM.

As for `N#CCC1(N2CCC(c3cc(C#N)cc(Nc4nc(NC5CC5)c5ncc(C#N)n5n4)c3Cl)CC2)COC1` [Example 378, 2-((2-chloro-5-cyano-3-(1-(3-(cyanomethyl)oxetan-3-yl)piperidin-4-yl)phenyl)amino)-4-(cyclopropylamino)imidazo[2,1-f][1,2,4]triazine-7-carbonitrile], the IC50 was 0.81 nM.

In the case of `C=CC1(N2CCC(c3cc(C#N)cc(Nc4nc(NC5CC5)c5ncc(C#N)n5n4)c3Cl)CC2)COC1` [Example 379, 2-((2-chloro-5-cyano-3-(1-(3-vinyloxetan-3-yl)piperidin-4-yl)phenyl)amino)-4-(cyclopropylamino)imidazo[2,1-f][1,2,4]triazine-7-carbonitrile], the IC50 was 2.61 nM.
